Measured values taken from ChEMBL document CHEMBL1201862, “PubChem BioAssay data set” (2004).
“And” between values parts separate entries of the source, which are not always exact repeats. Equal values may be shown once.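 Interpolation was linear, between the two tested concentrations surrounding the appropriate level; five concentrations were tested over 48 hours in 96-well plates. GI50 marks 50% less growth.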 The source made the active and inactive calls. Cut-off read from the data, not from the text of the source: active = GI50 up to about 1.1 µM and inactive = higher.

Columns and labels:
Test in all cases: NCI-60 cell line screen, 48 h
[1] = tested on: Hs-578T
[2] = tested on: A549
[3] = tested on: OVCAR-4
[4] = tested on: 786-0
[5] = tested on: OVCAR-5
[6] = tested on: A498
[7] = tested on: UACC-257
[8] = tested on: MOLT-4
[9] = tested on: LOX IMVI
[10] = tested on: SK-OV-3
[11] = tested on: EKVX
[12] = tested on: MDA-N
[13] = tested on: COLO 205
[14] = tested on: SF-539
[15] = tested on: RPMI-8226
[16] = tested on: TK-10
[17] = tested on: UACC-62
[18] = tested on: HL-60
[19] = tested on: HT-29
[20] = tested on: SW-620

Measured: GI50

CN(C)C(c1ccccc1)C1COC2Cc3ccccc3C1O2 (stereo unspecified)
inactive: [1] 92.3 µM | [2] > 100 µM | [3] > 100 µM | [4] > 100 µM | [5] > 100 µM | [6] > 100 µM | [7] > 100 µM | [8] > 100 µM and 54 µM | [9] 62.2 µM and 64.4 µM | [10] > 100 µM | [11] > 100 µM | [12] > 100 µM | [13] > 100 µM | [14] > 100 µM | [15] > 100 µM and 91 µM | [16] > 100 µM | [17] > 100 µM | [18] 65 µM and 46.8 µM | [19] 47.5 µM and 46.6 µM

CCOC(=O)C(NC(=O)NCc1ccc(F)cc1)C(F)(F)F (stereo unspecified)
inactive: [20] > 100 µM | [1] > 100 µM | [2] > 100 µM | [4] > 100 µM | [5] > 100 µM | [6] > 100 µM | [7] > 100 µM | [8] > 10 µM | [9] > 100 µM | [10] > 100 µM | [11] > 100 µM | [12] > 100 µM | [13] > 100 µM | [14] > 100 µM | [15] > 100 µM | [16] > 100 µM | [18] > 100 µM | [19] > 100 µM

C/C(NC(=O)c1ccccc1)=C(/C(=O)c1ccccc1)[C@@H]1OC(C)(C)O[C@@H]1[C@H]1COC(C)(C)O1
inactive: [20] 20.3 µM | [1] 27 µM | [2] 29.9 µM | [3] 27.6 µM | [4] 18.3 µM | [5] 34.4 µM | [6] 86.1 µM | [7] 30.8 µM | [8] 15.5 µM | [9] 19.9 µM | [11] 16.4 µM | [12] 18.6 µM | [13] 22.3 µM | [14] 54 µM | [15] 14.9 µM | [16] 77.6 µM | [17] 39.4 µM | [18] 16 µM | [19] 27 µM

O=C(Nc1ccc2[nH]c(C(=O)N3CC(CCl)c4ccc([N+](=O)[O-])cc43)cc2c1)c1cc2ccccc2o1 (stereo unspecified)
inactive: [20] > 1100 µM | [1] > 1100 µM | [2] 556 µM | [3] > 1100 µM | [4] > 1100 µM | [5] 893 µM | [6] > 1100 µM | [7] > 1100 µM | [8] > 1100 µM | [9] > 1100 µM | [10] > 1100 µM | [11] > 1100 µM | [12] > 1100 µM | [13] > 1100 µM | [14] > 1100 µM | [15] > 1100 µM | [17] > 1100 µM | [18] > 1100 µM | [19] > 1100 µM

O=c1cc(N2CCOCC2)[nH]c(=O)n1-c1cccc(Cl)c1
inactive: [20] > 100 µM | [1] > 100 µM | [3] > 100 µM | [4] > 100 µM | [5] > 100 µM | [6] 32.4 µM | [7] > 100 µM | [8] > 100 µM | [9] > 100 µM | [10] > 100 µM | [11] > 100 µM | [12] > 100 µM | [13] > 100 µM | [14] > 100 µM | [15] > 100 µM | [16] > 100 µM | [17] > 100 µM | [18] > 100 µM | [19] > 100 µM

CN1CCN(C2=C(Cl)C3(OCCS3)C(F)(F)C2(F)F)CC1 (stereo unspecified)
inactive: [20] > 100 µM | [1] > 100 µM | [2] 95.9 µM | [3] > 100 µM | [4] > 100 µM | [5] > 100 µM | [6] > 100 µM | [7] 27.2 µM | [8] 45.4 µM | [9] 56 µM | [10] > 100 µM | [11] > 100 µM | [12] > 100 µM | [13] 43.4 µM | [14] > 100 µM | [15] 44.5 µM | [16] > 100 µM | [17] > 100 µM | [18] 64.4 µM | [19] 39.4 µM

CC1CC(=O)Nc2cc(Cl)ccc2N1C(=O)C1CC1 (stereo unspecified)
inactive: [20] > 100 µM | [1] > 100 µM | [2] > 100 µM | [3] > 100 µM | [4] > 100 µM | [5] > 100 µM | [6] > 100 µM | [7] > 100 µM | [8] > 100 µM | [9] > 100 µM | [10] > 100 µM | [11] > 100 µM | [12] > 100 µM | [13] > 100 µM | [14] > 100 µM | [15] > 100 µM | [16] > 100 µM | [18] > 100 µM | [19] > 100 µM

N#Cc1nc(C2CCC(=O)O2)oc1N (stereo unspecified)
inactive: [20] > 100 µM | [1] > 100 µM | [4] > 100 µM | [5] > 100 µM | [6] > 100 µM | [7] > 100 µM | [8] > 100 µM | [9] 72.9 µM | [10] > 100 µM | [11] > 100 µM | [12] > 100 µM | [13] > 100 µM | [14] > 100 µM | [15] > 100 µM | [16] > 100 µM | [17] > 100 µM | [18] > 100 µM | [19] > 100 µM

COc1ccc(OC)c2c(Nc3ccc(S(=O)(=O)O)c4cc(S(=O)(=O)O)cc(S(=O)(=O)O)c34)cc(C)nc12
inactive: [20] > 100 µM | [1] > 100 µM | [2] > 100 µM | [3] > 100 µM | [4] > 100 µM | [5] > 100 µM | [6] > 100 µM | [7] > 100 µM | [8] > 100 µM | [9] > 100 µM | [10] > 100 µM | [11] > 100 µM | [12] > 100 µM | [13] > 100 µM | [14] > 100 µM | [15] > 100 µM | [16] > 100 µM | [17] > 100 µM | [18] > 100 µM | [19] > 100 µM

O=Cc1ccc(-c2cccs2)s1
inactive: [20] 72.4 µM | [1] 34.1 µM | [2] 60 µM | [3] 56.4 µM | [4] > 100 µM | [5] 16.7 µM | [6] 2.46 µM | [7] 6.62 µM | [8] > 95.1 µM | [9] > 91.8 µM | [10] > 100 µM | [11] 79.4 µM | [12] > 100 µM | [13] 42.3 µM | [14] > 100 µM | [15] 57.5 µM | [16] 3.88 µM | [17] 1.16 µM | [18] 49.3 µM | [19] 63.5 µM
